Results from US20110092505A1, “ORGANIC COMPOUNDS” (priority 2008, published 2011).
Where two headings read alike, the source gives them in different places.

How the values were obtained:
protein kinase D3 (PKD3) = biological target: T1, protein kinase D3 (PKD3) (Homo sapiens, UniProt O94806); test: PKD3 TR-FRET (LANCE) kinase assay; assay type: biochemical; conditions: full length wild-type enzyme, 20 μM ATP, syntide-2 substrate; read-out: Inhibitory Activity PKD3
T1 construct: This assay is performed with full length wild-type enzyme that is purchased from Invitrogen; purchased Invitrogen
T1 sequence (O94806 1-890): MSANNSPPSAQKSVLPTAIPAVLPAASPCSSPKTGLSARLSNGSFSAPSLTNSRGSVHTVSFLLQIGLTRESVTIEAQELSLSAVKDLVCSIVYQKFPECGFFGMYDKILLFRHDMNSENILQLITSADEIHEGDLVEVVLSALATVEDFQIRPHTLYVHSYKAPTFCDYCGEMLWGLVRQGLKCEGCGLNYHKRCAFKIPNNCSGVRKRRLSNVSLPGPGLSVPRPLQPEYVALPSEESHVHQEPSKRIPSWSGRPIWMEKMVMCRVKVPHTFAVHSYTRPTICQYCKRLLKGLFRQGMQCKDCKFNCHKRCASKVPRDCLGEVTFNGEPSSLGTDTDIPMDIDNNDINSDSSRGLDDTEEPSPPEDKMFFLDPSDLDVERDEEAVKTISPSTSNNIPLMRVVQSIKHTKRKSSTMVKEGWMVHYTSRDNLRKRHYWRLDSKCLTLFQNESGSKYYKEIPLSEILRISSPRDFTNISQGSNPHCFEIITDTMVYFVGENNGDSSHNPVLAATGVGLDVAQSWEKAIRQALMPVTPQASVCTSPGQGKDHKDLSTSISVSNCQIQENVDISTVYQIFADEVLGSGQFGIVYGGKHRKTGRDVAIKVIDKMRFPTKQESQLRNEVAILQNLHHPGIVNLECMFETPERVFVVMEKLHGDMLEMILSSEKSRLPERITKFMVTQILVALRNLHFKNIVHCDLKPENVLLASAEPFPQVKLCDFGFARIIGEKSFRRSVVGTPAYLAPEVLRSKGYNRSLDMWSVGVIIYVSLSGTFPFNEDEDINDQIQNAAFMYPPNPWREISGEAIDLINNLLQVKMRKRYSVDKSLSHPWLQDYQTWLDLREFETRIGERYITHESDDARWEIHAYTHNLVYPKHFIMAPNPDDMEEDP
Description: The assay to measure protein kinase D3 (PKD3) activity is a time-resolved fluorescence resonance transfer (TR-FRET) assay using PerkinElmer's LANCE™ technology. In this case, a biotinylated syntide-2 peptide is used as the substrate in this reaction. Phosphorylation of the syntide-2 substrate is detected by a specific antibody that recognizes the phosphorylated peptide. A second fluorophore, APC, is conjugated to streptavidin that binds the biotinylated syntide-2 peptide. […] Therefore, when the europium labeled secondary antibody binds on the phosphorylated peptide, it is brought into close contact with the APC and excites this fluorophore.
This assay is performed with full length wild-type enzyme that is purchased from Invitrogen. The reaction buffer consists of 35 mM Tris-HCl pH7.5, 5 mM MgCl2, 0.02% Tween-20, 20 μM ATP, 1 mM DTT and 0.2 μg/mL PKD3 enzyme. The enzyme reaction is initiated by the addition of 2 μM syntide-2 peptide substrate and the reaction carried out for 50 minutes at room temperature. The reaction is stopped by a stop/detection buffer consisting of 50 mM EDTA, 0.18 mg/mL rabbit polyclonal anti-phospho Syntide-2 antibody, 0.5 nM europium labeled anti-rabbit IgG and 10 nM streptavidin conjugated APC. After a one hour incubation with the stop/detection buffer, the reaction is read on an Envision 2100 Reader using a LANCE™ Eu/APC dual protocol. […] IC50 values are calculated using an Activity Base (IDBS) software program.

[1] = test system: agonist-dependent nuclear export of HDAC5; test: HDAC5 nuclear export assay (GFP-HDAC5, Cellomics imaging); assay type: cell-based; conditions: Rattus norvegicus, Ventricular myocyte, 2 h, read-out: Inhibitory Activity HDAC
Procedure: Compounds are evaluated in the HDAC5 nuclear export assay, a 384-well plate-based assay that enables high throughput screening (HTS) to identify small molecules that block agonist-dependent nuclear export of HDAC5. […] Neonatal rat ventricular myocytes (NRVMs) are infected with GFP-HDAC5 encoding virus and plated on gelatin-coated 384-well dishes. […] Following two hours of stimulation, cells are fixed and GFP-HDAC5 localization quantified using the Cellomics system, which provides a read-out of relative fluorescence intensity in the cytoplasmic versus nuclear compartment.

[2] = neonatal rat ventricular myocytes, PGF2α stimulation, two hours

| IC50 (protein kinase D3 (PKD3)) [nM] | IC50 [1, 2] [nM] | Structure (SMILES) | IC50 [1] [nM] |
| --- | --- | --- | --- |
| 85 | > 1000 | CS(=O)(=O)c1cc(-c2ccnc(NC3CCCCC3)c2)nc(N2CCNCC2)c1 [Cyclohexyl-(4-methanesulfonyl-6-piperazin-1-yl-[2,4′]bipyridinyl-2′-yl)-amine] | – |
| 5 | 235 | O=[N+]([O-])c1cc(-c2ccnc(NC3CCCCC3)c2)nc(N2CCNCC2)c1 [Cyclohexyl-(4-nitro-6-piperazin-1-yl-[2,4′]bipyridinyl-2′-yl)-amine] | – |
| 14 | 126 | c1cc(-c2cc(-c3nnco3)cc(N3CCNCC3)n2)cc(NC2CCCCC2)n1 [Cyclohexyl-(4-[1,3,4]oxadiazol-2-yl-6-piperazin-1-yl-[2,4′]bipyridinyl-2′-yl)-amine] | – |
| 20 | 616 | NC(=O)c1cc(-c2ccnc(NC3CCCCC3)c2)nc(N2CCN3CCC[C@@H]3C2)c1 [2′-Cyclohexylamino-6-(R)-hexahydro-pyrrolo[1,2-a]pyrazin-2-yl-[2,4′]bipyridinyl-4-carboxylic acid amide] | – |
| 74 | > 1000 | O=C1NCc2c1cc(-c1ccnc(NC3CCCCC3)c1)nc2N1CCn2cnnc2C1 [6-(2-Cyclohexylamino-pyridin-4yl)-4-(5,6-dihydro-8H-[1,2,4]triazolo[4,3-a]pyrazin-7-yl)-2,3-dihydro-pyrrolo[3,4-c]pyridin-1-one] | – |
| 114 | > 1000 | N#CCNC(=O)c1ccc(-c2ccnc(NC3CCCCC3)c2)nc1N1CCNCC1 [2′-Cyclohexylamino-6-piperazin-1-yl-[2,4′]bipyridinyl-5-carbonxylic acid cyanomethyl-amide] | – |
| 166 | > 1000 | COC(=O)c1ccc(-c2ccnc(NC3CCCCC3)c2)nc1N1CCNCC1 [2′-Cyclohexylamino-6-piperazin-1-yl-[2,4′]bipyridinyl-5-carboxylic acid methyl ester] | – |
| 2 | – | NC(=O)c1cc(-c2ccnc(NCCc3ccc(O)cc3)c2)nc(N2CCNCC2)c1 [2′-[2-(4-Hydroxyphenyl)ethylamino]-6-piperazin-1-yl-[2,4′]bipyridinyl-4-carboxylic acid amide] | – |
| 31 | – | NC(=O)c1cc(-c2ccnc(NCc3ccccc3Cl)c2)nc(N2CCNCC2)c1 [2′-(2-Chlorobenzylamino-6-piperazin-1-yl-[2,4′]bipyridinyl-4-carboxylic acid amide] | – |
| 252 | 423 | Fc1ccc(Nc2cc(-c3ccnc(NC4CCCCC4)c3)nc(N3CCNCC3)c2)cc1 [N*2′*-Cyclohexyl-N*4*-(4-fluoro-phenyl)-6-piperazin-1-yl-[2,4′]bipyridinyl-4,2′-diamine] | – |
| 38 | 421 | Nc1cc(-c2ccnc(NC3CCCCC3)c2)nc(N2CCNCC2)c1 [N*2′*-Cyclohexyl-6-piperazin-1-yl-[2,4′]bipyridinyl-4,2′-diamine] | – |

| Structure (SMILES) | IC50 (protein kinase D3 (PKD3)) [nM] | IC50 [1, 2] [nM] | IC50 [1] [nM] |
| --- | --- | --- | --- |
| FC(F)(F)c1cc(-c2ccnc(NC3CCCCC3)c2)nc(N2CCNCC2)c1 [Cyclohexyl-(6-piperazin-1-yl-4-trifluoromethyl-[2,4′]bipyridinyl-2′-yl)amine] | 13 | – | 342 |
